`O=C1C/C(=C\c2ccccc2[N+](=O)[O-])C(=O)N1` gave a melting point of 148 °C. With `c1ccc(OCCSCc2nnc(-c3ccc(OCCCCN4CCSCC4)cc3)o2)cc1` the melting point was 58 °C. `O=Cc1c2n(c3ccccc13)CCNCC2` showed a melting point of 167 to 168 °C. With `CC(C)Oc1ccc2nc[nH]c(=O)c2c1` the melting point was 206 to 208 °C. For `CN=C(NS(=O)(=O)N1CCCCC1)C1=NN(c2ccc(Cl)cc2)C(c2ccccc2)C1` (centres undefined), the melting point was 141 to 144 °C. Work on `FC1(F)c2ccccc2Cc2ccccc2C1(F)F` yielded a melting point of 53.5 to 55 °C. With `CC(C)N1CCC(Oc2ccc3[nH]ncc3c2)CC1` the melting point was 125 to 126 °C. Molecule `CC(C)(C)c1cc(CCc2cc(F)cc(F)c2NC(=O)NC(C)(C)c2ccc(Cl)c(Cl)c2)cc(C(C)(C)C)c1O` has a melting point of 224 to 226 °C. Work on `COC(=O)C(NC(=O)c1ccc(Cl)cc1)C(=O)OC` yielded a melting point of 146 to 148 °C. `O=C(Nc1nccs1)c1c(C(F)(F)F)nc2ccccc2c1O` showed a melting point of over 280 °C. For `COc1cc(Nc2ccc(CCCc3ccc(Cl)c(Cl)c3)cc2)c(C(=O)O)cc1[N+](=O)[O-]`, the melting point was 200 to 201 °C. With `Cc1cccc(NC(=O)NC2N=C(CO)c3cccc(C)c3N(CC(=O)N3CCCCCCC3)C2=O)c1` (centres undefined) the melting point was 214 to 216 °C. `CC(C)c1cc(C(=O)Nc2ccc(C(=O)O)nc2)oc1C(C)C` gave a melting point of 106 to 108 °C. Work on `CC1(CNC(=O)CCl)OCCc2c1[nH]c1ccccc21` (centres undefined) yielded a melting point of 186 to 187 °C. Molecule `CCOc1ccc2[nH]c(C)cc2c1O` has a melting point of 77 to 78 °C. Work on `Cc1ccc(C(=O)CCN(C)Cc2cccc3ccccc23)cc1` yielded a melting point of 92 to 95 °C. Molecule `Cc1c(S(=O)(=O)Nc2ccc(-c3nc(CCl)cs3)cc2S(C)(=O)=O)sc2ccc(F)cc12` has a melting point of 190 to 191 °C. For `COc1cc2ncnc(N3CCN(C(=O)Nc4ccc(N=Nc5ccccc5)cc4)CC3)c2cc1OC`, the melting point was 244 to 246 °C. Molecule `CC(C)(C)NC(=O)NC(C)(C)C` has a melting point of 246 °C. `C/C(=C\c1ccc(OC(C)C)cc1Oc1ncc(C(F)(F)F)cc1Cl)C(=O)NS(=O)(=O)NCC1CCCO1` (centres undefined) showed a melting point of 125 to 126 °C. `COc1c(Cl)ccc(-c2nc(C(=O)OC(C)C)cc(N)c2F)c1F` gave a melting point of 177 to 179 °C. In the case of `CC(c1oc2ccccc2c(=O)c1-c1cccc(F)c1)n1nc(-c2cc(O)ccc2Cl)c2c(N)ncnc21` (centres undefined), the melting point is reported as 192 to 195 °C. `CCCc1nc2c(N)nc3ccccc3c2n1CCCC(C)N(OC)C(C)=O` (centres undefined) gave a melting point of 140 to 142 °C. For `Cn1c(CCC#Cc2cccc(CF)n2)nc2ccccc21`, the melting point was 95.3 to 96.3 °C. With `CCOC(=O)c1cnc(Nc2ccccc2OC(C)C)[nH]c1=O` the melting point was 205 to 207 °C. Molecule `COC(=O)COc1ccc2cc(CNC(=O)c3cnn(-c4ccc(Cl)cc4)c3C(F)(F)F)ccc2c1` has a melting point of 174 to 176 °C. `CC(=O)Nc1ccc(-c2cnc3c(c2)N(Cc2cc(Cl)ccc2C(F)(F)F)CCN3)cc1` gave a melting point of 244 °C. Molecule `Cc1[nH]cnc1CSCCNC1=C([N+](=O)[O-])CCCN1` has a melting point of 206 °C. `O=S(=O)(c1ccccc1)c1ccc(Oc2ccc(Cl)c(Cl)c2)cc1` gave a melting point of 145 to 146 °C. Work on `CC(=O)N1CCC(CCC(=O)c2cc3c4c(c2)CC(=O)N4CCC3)CC1` yielded a melting point of 119 to 120 °C. `Cn1nc(-c2c(Cl)cc(C(F)(F)F)cc2Cl)c([N+](=O)[O-])c1N` showed a melting point of 107 to 108 °C. In the case of `Cc1cc(OCCCCOc2ccc([N+](=O)[O-])c(C)c2)ccc1[N+](=O)[O-]`, the melting point is reported as 108 to 110 °C. In the case of `NNC1=NCCc2ccccc21`, the melting point is reported as 55 to 57 °C. For `COc1ccc(CCCNS(=O)(=O)Cc2ccc3[nH]cc(CC#N)c3c2)cc1`, the melting point was 131 to 133 °C. `COC(=O)CC(=O)Nc1ccc(C2=NNC(=O)CC2C)cc1` (centres undefined) gave a melting point of 228 to 230 °C. For `N#Cc1cnc2ccsc2c1Sc1ccc(Cl)cc1Cl`, the melting point was 126 to 128 °C. `COC(=O)c1sc2ccc(OC)cc2c1OC(C)C#N` (centres undefined) showed a melting point of 127 to 129 °C. `N#CC(C#N)=C1N(CCCNC2CCCCC2)CCN1CCN1CCCCC1` showed a melting point of 78 to 80 °C. Molecule `Cc1ccc(-n2nc(C(=O)CCCO[N+](=O)[O-])cc2-c2ccc(S(C)(=O)=O)cc2)cc1` has a melting point of 107 to 109 °C. For `O=C1CCC(c2ccc3[nH]c(-c4ccnnc4)cc3c2)=NN1`, the melting point was over 300 °C. Work on `O=C(C(c1ccccc1)n1cnc2[nH]ncc2c1=S)N1CCCCCC1` (centres undefined) yielded a melting point of over 230 °C. `CC(C#N)Oc1cccc(CN2C(=O)c3cccc(NC(=O)c4ccc(Cl)s4)c3C2=O)c1` (centres undefined) showed a melting point of 88 °C. `CN1CCN(c2ccc(C(=O)NCCCCCCCCCCO[N+](=O)[O-])cn2)CC1` gave a melting point of 62 to 64 °C. `CCCN(c1ccncc1[N+](=O)[O-])n1ccc2ccccc21` gave a melting point of 84 to 86 °C. `COC(=O)c1cc(OCc2cn(-c3ccc(C(F)(F)F)cn3)nc2C(C)C)nn1C` gave a melting point of 114 to 115 °C. `O=C(Nc1ccccc1)Nc1cccc(-c2ccc(C(=O)N3CCN4CCC3CC4)o2)c1` showed a melting point of 125 to 130 °C. With `Cc1cc(C(=O)N(C)C)ccc1-c1ccc(C(=O)Nc2ccc(Br)c(N3CCN(C)CC3)c2)cc1` the melting point was 227 to 228 °C. In the case of `Cc1cccc(OC(C)(C)C(=O)NCCc2ccc(OC(C)(C)C(=O)O)cc2)c1`, the melting point is reported as 85 to 88 °C. Work on `CC1(C)OCCC2N1C(=O)C2(Sc1ccccc1)C1(O)CCSCC1` (centres undefined) yielded a melting point of 191 to 192 °C. For `CC(=O)SCCNC(=O)[C@H](CSC(C)=O)NC(=O)C(C)C`, the melting point was 125 to 127 °C. Work on `CC(CCc1cccc(F)c1)NCC(O)c1ccc(F)c(S(N)(=O)=O)c1` (centres undefined) yielded a melting point of 65 to 85 °C. With `CCOC(=O)CCC(=O)OCC(=O)c1ccc(Cl)cc1` the melting point was 50 to 51 °C. Work on `COC1CN(C(C)CC(C(=O)N(C)C)(c2ccccc2)c2ccccc2)CCC1NC(=O)c1cccc(C(F)(F)F)c1` (centres undefined) yielded a melting point of 198 °C. `COc1ccc(CCl)c(C)c1OC` gave a melting point of 67 to 68.5 °C. For `Nc1cc(N2CCCCC2)ccc1[N+](=O)[O-]`, the melting point was 100 to 101 °C. Molecule `Clc1ccccc1-c1nc(-c2ccccc2)c(-c2ccccc2)n1Br` has a melting point of 103 to 105 °C. With `COC(=O)c1cc(C#CC(C)(C)O)cnc1C1=NC(C)(C(C)C)C(=O)N1` (centres undefined) the melting point was 142 to 145 °C. With `CCOC(=O)c1sc2nc(SCCCN3CCN(c4ccccn4)CC3)[nH]c(=O)c2c1C` the melting point was 160 to 162 °C. Molecule `O=C(O)Cc1cccc2c(-c3ccc(C(F)(F)F)cc3)nccc12` has a melting point of 228 to 230 °C. `CC1(C)CC(=O)c2c(C3CCCCC3)sc(-c3nccs3)c2C1` showed a melting point of 101 to 103 °C. `CS(=O)(=O)Nc1cc(C(c2cc(F)ccc2F)S(=O)(=O)c2ccc(Cl)cc2)c(F)cn1` (centres undefined) gave a melting point of 217 to 219 °C. With `COc1cc2[nH]c(=O)c3c(c2cc1OC)CCN(CCN1CCCCC1)C3` the melting point was 185 to 188 °C. Molecule `CCOc1ccc(OCc2ccc(OCc3nc(-c4ccccc4)oc3C)cc2)cc1CC(=O)OC` has a melting point of 82 to 83 °C. With `O=C1[C@H]2CCC[C@H]2Nc2ccccc2N1Cc1cccc2ccccc12` (relative stereo) the melting point was 126 to 128 °C. In the case of `CCCCCCCCCCCCCCCCC[C@@H](C[C@@H]1OC(=O)[C@H]1CC)OC(=O)[C@H](CC(C)C)NC(=O)OCc1ccccc1`, the melting point is reported as 44 to 47 °C. Molecule `C[C@@H]1[C@@H](N)CN1c1c(F)cc2c(=O)c(C(=O)O)cn3c2c1OC[C@H]3C` has a melting point of 217 to 219 °C. For `CC(C(=O)O)c1ccc(Cc2ccccc2CC(=O)O)cc1` (centres undefined), the melting point was 135 to 137 °C. `O=C1N(c2cc(Cl)cc(Cl)c2)C(=O)C2(Cc3ccc(-c4cccnc4)cc3)CCCCN12` (centres undefined) showed a melting point of 276 °C. Molecule `c1ccc(CN2CCN(Cc3ccccc3)C(CCc3ccncc3)C2)cc1` (centres undefined) has a melting point of 96 to 98 °C.
